According to patent US9801843B2, “Self-emulsifying composition of ω3 fatty acid” (priority 2013, dated 2017):

Test: Pharmacokinetics in beagles (Test Example 5)
Type: in vivo
Conditions: plasma EPA, male beagles fasted, oral, 600 mg EPA-E, baseline-corrected
Method: The composition of Example 14 was orally administered to 6 male beagles (at the age of 2 to 6 years with the body weight of 13 kg, 3 Marshall beagles and 3 Nosan beagles) under fasting conditions, and blood EPA concentration was evaluated. The test animals had been fasted since 18 hours or more before the administration, and each animal was administered with the composition in an amount corresponding to 600 mg of the EPA-E. Blood was collected before the administration, and 0.5, 1, 1.5, 2, 3, 4, 6, 8, and 24 hours after the administration, and plasma was separated to measure plasma EPA concentration by LC/MS/MS (method in which a sample is isolated by liquid chromatography, then subjected to mass spectrometry to conduct separation and measurement thereon). The control group was administered with the EPA-E stock solution encapsulated in a capsule. […] In the calculation of each parameter, correction was made by subtracting the blood EPA concentration before the administration from the measured blood concentration.

- AUC0-2: 14.4 µg·h/mL
- AUC0-24: 188 µg·h/mL
- Cmax: 16.6 µg/mL
Compound: CC/C=C\C/C=C\C/C=C\C/C=C\C/C=C\CCCC(=O)OCC [EPA-E Stock solution, Ethyl eicosapentaenoate ester]
